Reference: paper PMC2902275 (Cancer prevention research (Philadelphia, Pa.), 2009)

Molecular target: HDAC3 (Homo sapiens, UniProt O15379)
Assay: preliminary enzyme kinetics of HDAC3 inhibition
Type: biochemical

Chain of HDAC3 (O15379 whole entry): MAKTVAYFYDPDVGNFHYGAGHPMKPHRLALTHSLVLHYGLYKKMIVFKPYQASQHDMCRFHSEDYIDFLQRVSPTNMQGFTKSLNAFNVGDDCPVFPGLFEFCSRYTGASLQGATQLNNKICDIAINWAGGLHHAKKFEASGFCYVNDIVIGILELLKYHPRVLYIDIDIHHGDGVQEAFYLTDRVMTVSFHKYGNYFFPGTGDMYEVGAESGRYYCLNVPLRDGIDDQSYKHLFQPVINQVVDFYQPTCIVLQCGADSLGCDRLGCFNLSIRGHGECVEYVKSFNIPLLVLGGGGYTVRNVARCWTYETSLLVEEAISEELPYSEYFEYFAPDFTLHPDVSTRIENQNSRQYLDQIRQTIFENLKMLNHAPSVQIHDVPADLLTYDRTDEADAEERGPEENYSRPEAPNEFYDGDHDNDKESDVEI

C[Se]CCC(=O)C(=O)O [KMSB, α-keto-γ-methylselenobutyrate]
Ki: ~30 µM
